Drawing on patent publication US20250084095A1, “Aminopyrimidine Derivatives as Cyclin-Dependent Kinase Inhibitors” (Accutar Biotechnology Inc., priority 2023, published 2025), this text covers IC50 and GI50 for 3 compounds.

For orientation: IC50 means the point on the concentration scale where inhibition reaches its midpoint. Broadly, the GI50 is the concentration at which growth is held to half of that of the control.

Molecules are shown by their SMILES.

What all share (assay type): cell-based
Experiment [1] deals with Phospho-Rb (Ser807/811) in SW1573-CDK6 KO cells. The experiment is described as follows: Phospho-Rb expression inhibition in SW1573-CDK6 KO cells quantified by in cell Western. Particulars: Homo sapiens, 24 hours, read-out: SW1573 CDK6 KO pRb IC50. Summed up: (§1)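 CRISPR CDK4- or CDK6-knockout SW1573 clones were seeded at 20,000 cells/well overnight, then exposed to compound (0.1% DMSO from 1000× stocks) for 24 h at 37° C in 10% FBS medium. Fixed, methanol-permeabilized cells were co-stained for phospho-Rb Ser807/811 and total Rb, with near-infrared in-cell Western read-out.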

The test system of another experiment is 22RV1 cells. Put plainly: Cell growth inhibition of 22RV1 cells (CellTiter-Glo). Particulars: Homo sapiens, 22Rv1, 120 h, 5 days, CellTiter-Glo, read-out: 22RV1 Cell Growh GI50. The method in brief: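 22RV1 cells were plated in RPMI1640 with FBS (20% in one version, 10% in the other) and dosed next day at various concentrations from DMSO stocks. After 5 days at 37 °C, viability was measured by CellTiter-Glo luminescence.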

Experiment [2] has as its system Phospho-Rb (Ser807/811) in SW1573-CDK4 KO cells. Put plainly: Phospho-Rb expression inhibition in SW1573-CDK4 KO cells quantified by in cell Western. The settings on record: Homo sapiens, 24 hours, read-out: SW1573 CDK4 KO pRb IC50. Summed up: as §1

For the compound `Cc1c(-c2nc(N[C@@H]3C[C@H]4CO[C@H](O4)[C@H]3O)ncc2Cl)sc2c(C)c(C(C)(C)O)cnc12` [Compound 277, (1S,3R,4S,5R)-3-((5-chloro-4-(6-(2-hydroxypropan-2-yl)-3,7-dimethylthieno[3,2-b]pyridin-2-yl)pyrimidin-2-yl)amino)-6,8-dioxabicyclo[3.2.1]octan-4-ol], the IC50 in experiment [1] was no more than 40 nM; in experiment [2] it was greater than 1000 nM. In addition, in the experiment on 22RV1 cells, the GI50 fell in the range of 120 to 450 nM.

For the compound `Cc1c(CN2CC[C@H](F)C2)n(C(C)C)c2cc(-c3nc(N[C@@H]4C[C@H]5CO[C@H](O5)[C@H]4O)ncc3F)ccc2c1=O` [Compound 293, 7-(5-fluoro-2-(((1S,3R,4S,5R)-4-hydroxy-6,8-dioxabicyclo[3.2.1]octan-3-yl)amino)pyrimidin-4-yl)-2-(((S)-3-fluoropyrrolidin-1-yl)methyl)-1-isopropyl-3-methylquinolin-4(1H)-one], the IC50 in experiment [1] is no more than 40 nM; in experiment [2] it was 150 to 1000 nM. Also, the GI50 in the experiment on 22RV1 cells is no more than 120 nM.

Consider `CC(C)n1c(N2C(=O)OC[C@@H]2C)nc2c(F)cc(-c3nc(N[C@@H]4C[C@H]5CO[C@H](O5)[C@H]4O)ncc3Cl)cc21` [Compound 298, (S)-3-(6-(5-chloro-2-(((1S,3R,4S,5R)-4-hydroxy-6,8-dioxabicyclo[3.2.1]octan-3-yl)amino)pyrimidin-4-yl)-4-fluoro-1-isopropyl-1H-benzo[d]imidazol-2-yl)-4-methyloxazolidin-2-one], for which the IC50 was 40 to 150 nM in experiment [1] and greater than 1000 nM in experiment [2]. Also, in the experiment on 22RV1 cells, the GI50 lay within 450 to 3000 nM.
